Reference: PubChem BioAssay AID248 (DTP/NCI, 2004)
Several values for one entry are separate records, joined by “and”; a condition that tells them apart may be missing. Equal values may be shown once. Inconclusive results and toxic doses are left out. Rule as the data show it: active = T/C of 150% or more; inactive = T/C below 125%.

Tested on: L1210 leukemia ip in BDF1 mice, survival T/C
Assay: NCI In Vivo Anticancer Drug Screen. Data for tumor model L1210 Leukemia (intraperitoneal) in B6D2F1 (BDF1) mice
Details: endpoint: mean survival time, higher = longer survival
Outline: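 Antitumor effect is assessed in tumor-bearing animals. Survival in the compound arm is compared with a vehicle-dosed control arm and expressed as their quotient.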

[1] = dose: 100.0 mg/kg/injection, schedule: Q01DX001 (ip), vehicle: Klucel (hydroxypropylcellulose) (HPC)
[2] = dose: 100.0 mg/kg/injection, schedule: Q01DX001 (ip), vehicle: saline
[3] = dose: 100.0 mg/kg/injection, schedule: Q01DX009 (ip), vehicle: Klucel (hydroxypropylcellulose) (HPC)
[4] = dose: 200.0 mg/kg/injection, schedule: Q01DX001 (ip), vehicle: saline
[5] = dose: 200.0 mg/kg/injection, schedule: Q01DX009 (ip), vehicle: Klucel (hydroxypropylcellulose) (HPC)
[6] = dose: 400.0 mg/kg/injection, schedule: Q01DX001 (ip), vehicle: saline
[7] = dose: 400.0 mg/kg/injection, schedule: Q01DX009 (ip), vehicle: Klucel (hydroxypropylcellulose) (HPC)
[8] = dose: 50.0 mg/kg/injection, schedule: Q01DX009 (ip), vehicle: saline with Tween-80
[9] = dose: 100.0 mg/kg/injection, schedule: Q01DX009 (ip), vehicle: saline with Tween-80
[10] = dose: 200.0 mg/kg/injection, schedule: Q01DX009 (ip), vehicle: saline with Tween-80
[11] = dose: 400.0 mg/kg/injection, schedule: Q01DX009 (ip), vehicle: saline with Tween-80
[12] = dose: 75.0 mg/kg/injection, schedule: Q01DX001 (ip), vehicle: saline
[13] = dose: 150.0 mg/kg/injection, schedule: Q01DX001 (ip), vehicle: saline
[14] = dose: 300.0 mg/kg/injection, schedule: Q01DX001 (ip), vehicle: saline
[15] = dose: 25.0 mg/kg/injection, schedule: Q01DX009 (ip), vehicle: saline with Tween-80
[16] = dose: 100.0 mg/kg/injection, schedule: Q04DX003 (ip), vehicle: Klucel (hydroxypropylcellulose) (HPC)
[17] = dose: 200.0 mg/kg/injection, schedule: Q04DX003 (ip), vehicle: Klucel (hydroxypropylcellulose) (HPC)
[18] = dose: 400.0 mg/kg/injection, schedule: Q04DX003 (ip), vehicle: Klucel (hydroxypropylcellulose) (HPC)
[19] = dose: 25.0 mg/kg/injection, schedule: Q01DX009 (ip), vehicle: Klucel (hydroxypropylcellulose) (HPC)
[20] = dose: 100.0 mg/kg/injection, schedule: Q04DX003 (ip), vehicle: saline with Tween-80
[21] = dose: 200.0 mg/kg/injection, schedule: Q04DX003 (ip), vehicle: saline with Tween-80
[22] = dose: 400.0 mg/kg/injection, schedule: Q04DX002 (ip), vehicle: saline with Tween-80
[23] = dose: 400.0 mg/kg/injection, schedule: Q04DX003 (ip), vehicle: saline with Tween-80
[24] = dose: 50.0 mg/kg/injection, schedule: Q01DX009 (ip), vehicle: Klucel (hydroxypropylcellulose) (HPC)
[25] = dose: 25.0 mg/kg/injection, schedule: Q01DX001 (ip), vehicle: Klucel (hydroxypropylcellulose) (HPC)
[26] = dose: 50.0 mg/kg/injection, schedule: Q01DX001 (ip), vehicle: Klucel (hydroxypropylcellulose) (HPC)
[27] = dose: 100.0 mg/kg/injection, schedule: Q04DX002 (ip), vehicle: saline with Tween-80
[28] = dose: 200.0 mg/kg/injection, schedule: Q04DX002 (ip), vehicle: saline with Tween-80

Measured: T/C

CON(C)c1nc(Cl)nc(Cl)n1
inactive: dose: 50.0 mg/kg/injection, schedule: Q01DX001 (ip), vehicle: saline 105 % of control | [1] 103 % of control | [2] 100 % of control | [3] 95 % of control | dose: 200.0 mg/kg/injection, schedule: Q01DX001 (ip), vehicle: Klucel (hydroxypropylcellulose) (HPC) 94 % of control | [4] 94 % of control | [5] 98 % of control | dose: 400.0 mg/kg/injection, schedule: Q01DX001 (ip), vehicle: Klucel (hydroxypropylcellulose) (HPC) 98 % of control | [6] 102 % of control | [7] 96 % of control

O=C1C2CCC(C2)C1C(O)(C(F)(F)Cl)C(F)(F)Cl (centres undefined)
inactive: [8] 92 % of control | [9] 90 % of control | [10] 90 % of control | [11] 92 % of control

COc1cc(CCN(C)C)cc(OC)c1OC
inactive: [12] 95 % of control | [13] 101 % of control | [14] 102 % of control

Clc1nnc(-c2ccccc2)c(-c2ccccc2)n1
inactive: [15] 95 % of control | [8] 95 % of control | [9] 97 % of control

C=CCNC(=S)NCC=C
inactive: [3] 102 % of control | [16] 102 % of control | [5] 100 % of control | [17] 104 % of control | [7] 100 % of control | [18] 102 % of control

[N-]=Cc1c(O)cccc1Cl.[N-]=Cc1cc(Cl)ccc1O.[Ni+2]
inactive: dose: 6.25 mg/kg/injection, schedule: Q01DX009 (ip), vehicle: Klucel (hydroxypropylcellulose) (HPC) 96 % of control | dose: 12.5 mg/kg/injection, schedule: Q01DX009 (ip), vehicle: Klucel (hydroxypropylcellulose) (HPC) 93 % of control | [19] 95 % of control | [16] 97 % of control | [17] 87 % of control | [18] 86 % of control

Fc1c(F)c(F)c(Oc2nc(Oc3c(F)c(F)c(F)c(F)c3F)nc(-c3ccccc3)n2)c(F)c1F
inactive: dose: 25.6 mg/kg/injection, schedule: Q04DX002 (ip), vehicle: saline with Tween-80 91 % of control | dose: 64.0 mg/kg/injection, schedule: Q04DX002 (ip), vehicle: saline with Tween-80 102 % of control | [20] 92 % of control | dose: 160.0 mg/kg/injection, schedule: Q04DX002 (ip), vehicle: saline with Tween-80 94 % of control | [21] 92 % of control | [22] 105 % of control | [23] 87 % of control

CN(C(=O)Nc1ccc(Cl)cc1[N+](=O)[O-])C1CCCCC1
inactive: [3] 92 % of control | [5] 94 % of control | [7] 97 % of control

Cc1ccc2nc3c(nc2c1)-c1cccc2cccc-3c12
inactive: [15] 94 % of control | [8] 90 % of control | [20] 102 % of control | [21] 93 % of control

CCOC(=O)c1ccc(NC(=O)Nc2cc(Cl)ccc2C)cc1
inactive: [19] 103 % of control | [24] 108 % of control | [3] 87 % of control and 89 % of control | [5] 98 % of control

CCCCCCCCCCCCCCCCC/C=N\NC(=O)CCCC(=O)N/N=C/CCCCCCCCCCCCCCCCC
inactive: dose: 50.0 mg/kg/injection, schedule: Q01DX001 (ip), vehicle: other 90 % of control | dose: 200.0 mg/kg/injection, schedule: Q01DX001 (ip), vehicle: other 88 % of control

O=CN/N=C/c1cccc([N+](=O)[O-])c1
inactive: [12] 95 % of control | [13] 95 % of control | [14] 92 % of control

CCCCCCCCCCCC(=O)[O][Sn]([CH2]CCC)([CH2]CCC)[O]C(=O)CCCCCCCCCCC
inactive: dose: 12.5 mg/kg/injection, schedule: Q04DX003 (ip), vehicle: saline with Tween-80 108 % of control

O=C(c1cccc([N+](=O)[O-])c1)C1CC1
inactive: [25] 97 % of control | [26] 101 % of control | [1] 95 % of control

N#Cc1ccccc1.N#Cc1ccccc1.[Cl][Pd][Cl]
inactive: [24] 95 % of control | [3] 95 % of control | [16] 94 % of control | [5] 101 % of control | [17] 102 % of control

O=C(CCN1CC1)NCCCCCCNC(=O)CCN1CC1
inactive: [16] 92 % of control | [17] 90 % of control | [18] 86 % of control

CC1(C)C/C(=C\c2cccc(Cl)c2)C(=O)c2ccccc21
inactive: [16] 108 % of control | [17] 106 % of control | [18] 110 % of control

CN(CCO)CC(O)Cn1cnc2c1c(=O)n(C)c(=O)n2C (centres undefined) (tested in a mixture with another compound)
inactive: [2] 108 % of control | [4] 112 % of control | [6] 104 % of control

c1ccc(C(c2ccccc2)c2ccncc2)cc1
inactive: [27] 87 % of control | [28] 90 % of control | [22] 87 % of control

CCCCCCCCCCC(=O)CC
inactive: [9] 102 % of control | [10] 104 % of control | [11] 113 % of control

CCNc1nc2c(=O)[nH]c(N)nc2n1C1OC(CO)C(O)C1O (centres undefined)
inactive: dose: 100.0 mg/kg/injection, schedule: Q01DX001 (ip), vehicle: carboxymethylcellulose (CMC) 107 % of control | dose: 200.0 mg/kg/injection, schedule: Q01DX001 (ip), vehicle: carboxymethylcellulose (CMC) 96 % of control | dose: 400.0 mg/kg/injection, schedule: Q01DX001 (ip), vehicle: carboxymethylcellulose (CMC) 107 % of control

COC(=O)c1cc([N+](=O)[O-])c(C)s1
inactive: [2] 100 % of control | [4] 100 % of control | [6] 96 % of control

N#C/C(=C/c1cccc2ccccc12)C(N)=O
inactive: [27] 98 % of control | [28] 91 % of control | [22] 98 % of control

COc1cc(C(=O)N(CCCl)N=O)cc(OC)c1OC
inactive: dose: 1.56 mg/kg/injection, schedule: Q01DX009 (ip), vehicle: saline with Tween-80 100 % of control | dose: 3.12 mg/kg/injection, schedule: Q01DX009 (ip), vehicle: saline with Tween-80 100 % of control and 107 % of control | dose: 6.25 mg/kg/injection, schedule: Q01DX009 (ip), vehicle: saline with Tween-80 100 % of control and 104 % of control | dose: 12.5 mg/kg/injection, schedule: Q01DX009 (ip), vehicle: saline with Tween-80 104 % of control | dose: 25.0 mg/kg/injection, schedule: Q04DX003 (ip), vehicle: saline with Tween-80 102 % of control | dose: 50.0 mg/kg/injection, schedule: Q04DX003 (ip), vehicle: saline with Tween-80 89 % of control | [20] 102 % of control and 86 % of control

O=C(NC(=S)Nc1cccc(O)c1)c1cccc([N+](=O)[O-])c1
inactive: dose: 100.0 mg/kg/injection, schedule: Q01DX001 (ip), vehicle: saline with Tween-80 93 % of control | [9] 94 % of control and 87 % of control | [27] 98 % of control and 101 % of control | [20] 89 % of control | dose: 200.0 mg/kg/injection, schedule: Q01DX001 (ip), vehicle: saline with Tween-80 97 % of control | [10] 93 % of control and 105 % of control | [28] 96 % of control and 109 % of control | [21] 109 % of control | dose: 400.0 mg/kg/injection, schedule: Q01DX001 (ip), vehicle: saline with Tween-80 103 % of control | [11] 94 % of control | [22] 101 % of control | [23] 94 % of control

BrCC(Br)=C(Br)Br
inactive: dose: 6.0 mg/kg/injection, schedule: Q04DX003 (ip), vehicle: Klucel (hydroxypropylcellulose) (HPC) 105 % of control | dose: 12.0 mg/kg/injection, schedule: Q01DX001 (ip), vehicle: Klucel (hydroxypropylcellulose) (HPC) 88 % of control | dose: 12.0 mg/kg/injection, schedule: Q04DX003 (ip), vehicle: Klucel (hydroxypropylcellulose) (HPC) 91 % of control | [25] 97 % of control and 101 % of control | dose: 25.0 mg/kg/injection, schedule: Q04DX003 (ip), vehicle: Klucel (hydroxypropylcellulose) (HPC) 91 % of control | [26] 93 % of control and 90 % of control | [1] 97 % of control
